Assays:
[1] = Photochemical stability on irradiation in PBS, HPLC analysis; assay type: physicochemical; conditions: 0.1 mM PBS solutions irradiated separately for 12 minutes, 300 and 350 nm fluorescent lamps
Experimental: It is important to note that peptide 4 and NQMP-TEG (1c) are photochemically stable under these conditions. […] Obviously, NQMP 1c still forms oNQM 2c but in the absence of thiols the latter rapidly undergoes hydration back to starting materials.
0.1 mM PBS solutions of NQMP-TEG (2c) and peptide 4 were irradiated separately for 12 minutes using both 300 and 350 nm fluorescent lamps.

[2] = Aqueous solubility of NQMP derivatives; conditions: wholly aqueous solutions
Papain from papaya latex [3] = biological target: T1, Papain from papaya latex (Carica papaya, UniProt P00784); experiment: Photochemical inhibition of papain activity by NQMP-TEG (L-BAPNA hydrolysis rate); assay type: biochemical; conditions: for Relative activity: PBS
T1 construct: from tissue; host or cells: papaya latex
T1 sequence (P00784 134-345): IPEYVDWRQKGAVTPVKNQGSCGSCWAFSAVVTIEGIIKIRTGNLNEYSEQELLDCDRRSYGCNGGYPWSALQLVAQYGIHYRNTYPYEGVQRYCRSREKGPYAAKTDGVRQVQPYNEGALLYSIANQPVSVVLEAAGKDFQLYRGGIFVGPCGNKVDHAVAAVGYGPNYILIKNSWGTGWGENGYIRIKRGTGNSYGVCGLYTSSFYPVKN
Experimental: (§1) Papain was activated by incubation the enzyme with 100-40 fold excess of free cysteine for 45 minutes in PBS solution. The concentration of the papain in the stock solution was determined by its […] at 280 nm (s=57600 M^−1 cm^−1) (Pace et. al., Protein Sci. 1995, 4:2411-2423). The activity of the protease was measured using N-α-benzoyl-L-arginine-p-nitroanilide (L-BAPNA). […] The formation of the latter can be followed by the rise of characteristic absorbance at 410 nm (ε=9800). Water-soluble NQMP-TEG (FIG. 13) was employed for inhibition experiments.
A PBS solution containing 1.7 μM of papain, 80 μM of cysteine and variable amounts of NQMP-TEG was irradiated for 2 minutes with 350 nm fluorescent lamps. A stock solution of BAPNA was then added to a photolysate to achieve 800 μM concentration of the substrate and rate of hydrolysis was measured (Table 5, FIG. 14).
A PBS solution containing 0.91 μM of papain, 44 μM of cysteine and 109 μM of NQMP-TEG was irradiated for 2, 3 or 4 minutes with 350 nm fluorescent lamps. A stock solution of BAPNA was then added to a photolysate to achieve 200 μM concentration of the substrate and rate of hydrolysis was measured (Table 6, FIG. 15).

Papain from papaya latex [4] = biological target: T1, Papain from papaya latex; experiment: Photochemical restoration (re-activation) of NQMP-inhibited papain activity; assay type: biochemical; conditions: for Papain Activity: photolysate with inhibited papain, NQMP-TEG, cysteine plus 2-(2-(vinyloxy)ethoxy)ethanol equal to initial NQMP-TEG
Experimental: as §1
A sample of deactivated papain was prepared as described above. The protein was separated from low molecular weight compounds using gel filtration (Sephadex PD-10 column). To check for the completeness of inhibition an excess of cysteine was added to a PBS solution of the inhibited papain and incubated for 45 minutes. […] This solution was then re-irradiated with 350 nm fluorescent lamps for 15 minutes.
Alternatively, re-activation of papain was achieved without isolation of inhibited enzyme. Ethyl vinyl ether derivative, 2-(2-(vinyloxy)ethoxy)ethanol, was added to a photolysate containing inhibited papain, NQMP-TEG, and cysteine in PBS solution. The amount of vinyl ether added was equal to the initial amount of NQMP-TEG.

[5] = Cysteine specificity of NQMP photo-click reaction, peptides lacking free cysteine; conditions: irradiation of peptides 6 and 7 with 4 to 12 equivalents of NQMP-TEG, HPLC analysis
Experimental: To test the cysteine specificity of NQMP photo-click reaction, two analogs of peptide 4 containing the same amino acid sequence but lacking free cysteine were prepared. In nonapeptide 6 cysteine residue was replaced with methionine, while the thiol group in 4 was converted into disulfide bond by oxidative dimerization to form oligopeptide 7. […] These experiments show the high specificity of addition of photochemically generated oNQM to cysteine thiol group.
0.1 mM PBS solutions of peptides 4, 6, and 7 were irradiated with 300 or 350 nm fluorescent lamps in the presence of variable amounts of NQMP-TEG (2c, 0.1-0.4 mM). Composition of the photolysates was analyzed using HPLC (FIG. 17). Peptide 4-NQMP-TEG conjugate (5) was isolated using semi-prep C-18 HPLC column and characterized by ESI-HRMS (FIG. 18). The concentration of labeled peptide 5 was determined by UV spectroscopy using characteristic 330 nm band of NQMP chromophore. This solution was then used in calibration of HPLC instruments.

Ac-Cys-Lys-Tyr-Trp-Gly-Arg-Asp-Ser-NH2 (Ac-CKYWGRDS-NH2) [compound 4]
Photochemical stability (decomposition or losses by HPLC) [1]: No decomposition or losses of materials were detected

OCc1cc2cccc(O)c2cc1O [1b, 6-(hydroxymethyl)naphthalene-1,7-diol]
Aqueous solubility [2]: rather low aqueous solubility

OCc1cc2ccccc2cc1O [1a, 3-hydroxy-2-naphthalenemethanol]
Aqueous solubility [2]: rather low aqueous solubility

8-TEG-3-(hydroxymethyl)naphthalen-2-ol [NQMP-TEG]
Relative activity (Papain from papaya latex [3]; 100 μM NQMP-TEG, 1.7 μM papain, 80 μM cysteine, 2 minutes irradiation at 350 nm, 800 μM BAPNA): 65%
Relative activity (Papain from papaya latex [3]; 109 μM NQMP-TEG, 0.91 μM papain, 44 μM cysteine, 2 minutes irradiation at 350 nm, 200 μM BAPNA): 52%
Relative activity (Papain from papaya latex [3]; 109 μM NQMP-TEG, 0.91 μM papain, 44 μM cysteine, 3 minutes irradiation at 350 nm, 200 μM BAPNA): 27%
Relative activity (Papain from papaya latex [3]; 109 μM NQMP-TEG, 0.91 μM papain, 44 μM cysteine, 4 minutes irradiation at 350 nm, 200 μM BAPNA): 0%
Relative activity (Papain from papaya latex [3]; 109 μM NQMP-TEG, 0.91 μM papain, 44 μM cysteine, irradiation time 0 minutes, 200 μM BAPNA): 100%
Relative activity (Papain from papaya latex [3]; 150 μM NQMP-TEG, 1.7 μM papain, 80 μM cysteine, 2 minutes irradiation at 350 nm, 800 μM BAPNA): 48%
Relative activity (Papain from papaya latex [3]; 200 μM NQMP-TEG, 1.7 μM papain, 80 μM cysteine, 2 minutes irradiation at 350 nm, 800 μM BAPNA): 43%
Relative activity (Papain from papaya latex [3]; 250 μM NQMP-TEG, 1.7 μM papain, 80 μM cysteine, 2 minutes irradiation at 350 nm, 800 μM BAPNA): 27%
Relative activity (Papain from papaya latex [3]; 300 μM NQMP-TEG, 1.7 μM papain, 80 μM cysteine, 2 minutes irradiation at 350 nm, 800 μM BAPNA): 17%
Relative activity (Papain from papaya latex [3]; 400 μM NQMP-TEG, 1.7 μM papain, 80 μM cysteine, 2 minutes irradiation at 350 nm, 800 μM BAPNA): 0%
Concentration required to completely inhibit the activity of Papain (Papain from papaya latex [3]; 2 minutes of irradiation at 350 nm, 1.7 μM papain, 80 μM cysteine): about 350 μM
Papain Activity (Papain from papaya latex [4]; 350 nm irradiation 0 minutes): 0%
Papain Activity (Papain from papaya latex [4]; 350 nm irradiation 3 minutes): 28%
Papain Activity (Papain from papaya latex [4]; 350 nm irradiation 4 minutes): 40%
Papain Activity (Papain from papaya latex [4]; 350 nm irradiation 5 minutes): 47%
Papain Activity (Papain from papaya latex [4]; 350 nm irradiation 7 minutes): 58%
Papain Activity (Papain from papaya latex [4]; 350 nm irradiation 8 minutes): 76%
Photochemical stability (decomposition or losses by HPLC) [1]: No decomposition or losses of materials were detected
Labeling of peptides lacking free cysteine (selectivity) [5]: produced no labeled products
Aqueous solubility [2]: freely soluble in wholly aqueous solutions up to millimolar concentrations

B1: inhibited papain: papain deactivated by irradiation with NQMP-TEG; a single NQMP-TEG unit added as thioether (conjugate, UniProt P00784 134-345, looked up)
Papain: IPEYVDWRQKGAVTPVKNQGSCGSCWAFSAVVTIEGIIKIRTGNLNEYSEQELLDCDRRSYGCNGGYPWSALQLVAQYGIHYRNTYPYEGVQRYCRSREKGPYAAKTDGVRQVQPYNEGALLYSIANQPVSVVLEAAGKDFQLYRGGIFVGPCGNKVDHAVAAVGYGPNYILIKNSWGTGWGENGYIRIKRGTGNSYGVCGLYTSSFYPVKN
modifications: NQMP-TEG thioether adduct, inactivated
Protease activity (L-BAPNA cleavage) after incubation with excess cysteine (Papain from papaya latex [4]; gel-filtered inhibited papain in PBS, excess of cysteine, 45 minutes, no re-irradiation): does not cleave L-BAPNA
Restoration of papain activity relative to wild type papain (Papain from papaya latex [4]; gel-filtered inhibited papain, no NQMP reagent, re-irradiated with 350 nm lamps for 15 minutes): 85-92%
